Test results as given in ChEMBL document CHEMBL5365467 (J Med Chem, 2023).

Experiments:
[1] = target: Protein cereblon/Androgen receptor (Homo sapiens, UniProt P10275+Q96SW2); experiment: PROTAC activity at AR/CRBN in AR-positive human VCaP cells assessed as induction of androgen receptor degradation measured at 24 hrs; format: cell-based
Androgen receptor = target: T1, Androgen receptor (Homo sapiens, UniProt P10275)
T1 sequence (P10275 whole entry): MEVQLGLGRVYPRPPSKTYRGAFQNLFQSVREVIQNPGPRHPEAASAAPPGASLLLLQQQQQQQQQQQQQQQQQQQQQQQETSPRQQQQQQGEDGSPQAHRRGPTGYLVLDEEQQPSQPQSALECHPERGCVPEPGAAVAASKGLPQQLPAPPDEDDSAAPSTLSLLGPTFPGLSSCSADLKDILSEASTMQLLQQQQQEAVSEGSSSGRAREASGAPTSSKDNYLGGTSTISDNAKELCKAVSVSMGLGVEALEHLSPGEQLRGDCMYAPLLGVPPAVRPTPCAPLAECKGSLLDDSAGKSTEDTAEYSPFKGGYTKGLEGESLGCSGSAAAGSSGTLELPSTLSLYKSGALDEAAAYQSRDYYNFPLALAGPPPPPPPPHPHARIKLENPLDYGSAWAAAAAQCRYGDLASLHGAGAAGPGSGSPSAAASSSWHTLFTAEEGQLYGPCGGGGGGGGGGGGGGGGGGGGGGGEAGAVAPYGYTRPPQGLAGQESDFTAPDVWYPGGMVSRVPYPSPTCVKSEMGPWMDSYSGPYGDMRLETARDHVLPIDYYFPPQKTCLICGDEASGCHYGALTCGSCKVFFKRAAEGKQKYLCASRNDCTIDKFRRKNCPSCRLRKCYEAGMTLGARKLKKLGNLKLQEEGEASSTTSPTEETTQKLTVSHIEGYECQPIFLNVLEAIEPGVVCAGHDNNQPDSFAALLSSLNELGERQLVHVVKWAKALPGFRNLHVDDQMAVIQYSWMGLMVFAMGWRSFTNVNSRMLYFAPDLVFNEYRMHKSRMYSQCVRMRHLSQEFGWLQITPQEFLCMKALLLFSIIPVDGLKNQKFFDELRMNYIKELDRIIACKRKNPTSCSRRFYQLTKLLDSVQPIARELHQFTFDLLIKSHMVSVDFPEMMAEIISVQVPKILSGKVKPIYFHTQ

Protein cereblon = Protein cereblon (Homo sapiens, UniProt Q96SW2); experiment: Binding affinity to CRBN (unknown origin) assessed as inhibition constant
Protein cereblon, sequence (Q96SW2 whole entry): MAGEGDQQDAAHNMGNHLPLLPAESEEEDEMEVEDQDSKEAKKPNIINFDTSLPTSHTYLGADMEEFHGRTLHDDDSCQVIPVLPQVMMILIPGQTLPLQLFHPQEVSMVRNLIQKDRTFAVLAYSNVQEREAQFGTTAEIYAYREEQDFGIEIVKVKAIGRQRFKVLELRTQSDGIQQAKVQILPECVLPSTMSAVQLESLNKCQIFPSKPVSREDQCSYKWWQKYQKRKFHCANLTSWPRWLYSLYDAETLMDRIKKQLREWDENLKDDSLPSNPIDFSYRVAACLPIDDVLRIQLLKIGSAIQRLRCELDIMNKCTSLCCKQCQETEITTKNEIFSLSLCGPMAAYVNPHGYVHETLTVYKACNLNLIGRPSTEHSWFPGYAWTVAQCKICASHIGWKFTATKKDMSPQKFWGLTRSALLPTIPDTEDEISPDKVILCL

VCaP = experiment: Growth inhibition in human VCaP cells
[2] = target: Protein cereblon/Androgen receptor (Homo sapiens, UniProt P10275+Q96SW2, T878A); experiment: PROTAC activity at AR T878A mutant/CRBN in human LNCaP cells assessed as induction of androgen receptor degradation measured at 24 hrs by Western blot analysis; format: cell-based
[3] = Half life in Sprague-Dawley rat at 2 mg/kg, iv measured upto 24 hrs by LC-MS/MS analysis; settings: in vivo
in vivo [4] = settings: Sprague-Dawley, rat, iv, 2 mg/kg
in vivo [5] = settings: Sprague-Dawley, rat, po, 5 mg/kg
[6] = Volume of distribution at steady state in Sprague-Dawley rat at 2 mg/kg, iv measured upto 24 hrs by LC-MS/MS analysis; settings: in vivo
[7] = Half life in Sprague-Dawley rat at 5 mg/kg, po measured upto 24 hrs by LC-MS/MS analysis; settings: in vivo
in vivo [8] = settings: Sprague-Dawley, rat, po, 5 mg/kg; remark: listed apart in the source
[9] = Clearance in Sprague-Dawley rat at 2 mg/kg, iv measured upto 24 hrs by LC-MS/MS analysis; settings: in vivo
in vivo [10] = settings: Sprague-Dawley, rat, po, 5 mg/kg; remark: listed apart in the source

Protein cereblon/Androgen receptor (Homo sapiens, UniProt P10275+Q96SW2), sequence (Q96SW2 whole entry, one chain of several): as the sequence (Q96SW2 whole entry) above

## C[C@@H]1CC2(CCN(c3ccc(C(=O)N4CCN(C)CC4)cc3)CC2)CN1c1ccc(C#N)c(Cl)c1
[1]
  DC50: Not Active

## N#Cc1ccc(N2CCC3(CCN(c4ccc(C(=O)N5CCC(N6Cc7cc8c(cc7C6)C(=O)N(C6CCC(=O)NC6=O)C8=O)CC5)cc4)CC3)C2)cc1Cl (stereo not drawn)
[1]; read-out: DC50
  DC50: 9.7 nM

## N#Cc1ccc(N2CCC3(CCN(c4ccc(C(=O)N5CCC(CCN6CCc7cc8c(cc7CC6)C(=O)N(C6CCC(=O)NC6=O)C8=O)CC5)cc4)CC3)C2)cc1Cl (stereo not drawn)
[1]; read-out: DC50
  DC50: 3000 nM

## C[C@@H]1CC2(CCN(c3ccc(C(=O)N4CCC(CN5Cc6cc7c(cc6C5)C(=O)N(C5CCC(=O)NC5=O)C7=O)CC4)cc3)CC2)CN1c1ccc(C#N)c(Cl)c1 (stereo partly drawn)
[1]; read-out: DC50
  DC50: 385 nM

## CN1CCN(c2ccc(C(=O)N[C@H]3CC[C@H](Oc4ccc(C#N)c(Cl)c4)CC3)cc2)CC1
Androgen receptor
  IC50: 55 nM

## CN1CCN(c2cc3c(cc2F)C(=O)N(C2CCC(=O)NC2=O)C3=O)CC1 (stereo not drawn)
Protein cereblon
  Ki: 4900 nM

## C[C@H]1CC2(CCN(c3ccc(C(=O)N4CCC(CN5Cc6cc7c(cc6C5)C(=O)N(C5CCC(=O)NC5=O)C7=O)CC4)cn3)CC2)CN1c1ccc(C#N)c(Cl)c1 (stereo partly drawn)
VCaP
  IC50: 11 nM
[2]
  DC50: 2.2 nM
[1]; read-out: DC50
  DC50: 2.3 nM

## N#Cc1ccc(N2CCC3(CCN(c4ccc(C(=O)N5CCC(N6CCc7cc8c(cc7C6)C(=O)N(C6CCC(=O)NC6=O)C8=O)CC5)cc4)CC3)C2)cc1Cl (stereo not drawn)
[1]; read-out: DC50
  DC50: 73 nM

## CC[C@H]1CC2(CCN(c3ccc(C(=O)N4CCC(CN5Cc6cc7c(cc6C5)C(=O)N(C5CCC(=O)NC5=O)C7=O)CC4)cc3)CC2)CN1c1ccc(C#N)c(Cl)c1 (stereo partly drawn)
VCaP
  IC50: 23 nM

## O=C1CCC(N2C(=O)c3ccc(N4CCC4)cc3C2=O)C(=O)N1 (stereo not drawn)
Protein cereblon
  Ki: 500 nM

## CN1CCN(c2ccc(C(=O)N3CCC4(CCN(c5ccc(C#N)c(Cl)c5)C4)C3)cc2)CC1 (stereo not drawn)
Androgen receptor
  IC50: 6900 nM

## CN1CCN(c2ccc(C(=O)N3CCC4(CCN(c5ccc(C#N)c(Cl)c5)CC4)C3)cc2)CC1
Androgen receptor
  IC50: 5000 nM

## C[C@H]1CC2(CCN(c3ccc(C(=O)N4CCC(O)(CN5Cc6cc7c(cc6C5)C(=O)N(C5CCC(=O)NC5=O)C7=O)CC4)cc3)CC2)CN1c1ccc(C#N)c(Cl)c1 (stereo partly drawn)
[1]; read-out: DC50
  DC50: 290 nM

## N#Cc1ccc(N2CCC3(CCN(c4ccc(C(=O)N5CCC(CN6CCc7cc8c(cc7C6)C(=O)N(C6CCC(=O)NC6=O)C8=O)CC5)cc4)CC3)C2)cc1Cl (stereo not drawn)
[1]; read-out: DC50
  DC50: 25 nM

## CN1CCc2cc3c(cc2C1)C(=O)N(C1CCC(=O)NC1=O)C3=O (stereo not drawn)
Protein cereblon
  Ki: 6000 nM

## CN1CCN(c2ccc(C(=O)N3CCC4(CC3)CCN(c3ccc(C#N)c(Cl)c3)C4)cc2)CC1
Androgen receptor
  IC50: 3600 nM

## C[C@H]1CC2(CCN(c3ccc(C(=O)N4CCC(N5Cc6cc7c(cc6C5)C(=O)N(C5CCC(=O)NC5=O)C7=O)CC4)cc3)CC2)CN1c1ccc(C#N)c(Cl)c1 (stereo partly drawn)
[3]
  half-life at 24 h: 5.5 h
In vivo [4]
  AUC(0-t) at 24 h: 2100 ng·h/mL
In vivo [5]
  Cmax at 24 h: 410 ng/mL
VCaP
  IC50: 16.5 nM
[6]
  Vd at 24 h: 6.1 L/kg
[7]
  half-life at 24 h: 5.5 h
[2]
  DC50: 0.8 nM
In vivo [8]
  bioavailability at 24 h: 81%
[9]
  clearance at 24 h: 15.3 mL/min/kg
[1]; read-out: DC50
  DC50: 0.4 nM
In vivo [10]
  AUC(0-t) at 24 h: 4280 ng·h/mL

## C[C@H]1CC2(CCN(c3ccc(C(=O)N4CCC(F)(CN5Cc6cc7c(cc6C5)C(=O)N(C5CCC(=O)NC5=O)C7=O)CC4)cc3)CC2)CN1c1ccc(C#N)c(Cl)c1 (stereo partly drawn)
[3]
  half-life at 24 h: 7.9 h
In vivo [4]
  AUC(0-t) at 24 h: 4000 ng·h/mL
In vivo [5]
  Cmax at 24 h: 216 ng/mL
VCaP
  IC50: 18 nM
[6]
  Vd at 24 h: 4.2 L/kg
[7]
  half-life at 24 h: 5.2 h
[2]
  DC50: 3.7 nM
In vivo [8]
  bioavailability at 24 h: 18%
[9]
  clearance at 24 h: 7.83 mL/min/kg
[1]; read-out: DC50
  DC50: 0.9 nM
In vivo [10]
  AUC(0-t) at 24 h: 1820 ng·h/mL

## CN1CCN(C(=O)c2ccc(N3CCC4(CCN(c5ccc(C#N)c(Cl)c5)C4)C3)cc2)CC1 (stereo not drawn)
Androgen receptor
  IC50: 1800 nM

## COC1(CN2Cc3cc4c(cc3C2)C(=O)N(C2CCC(=O)NC2=O)C4=O)CCN(C(=O)c2ccc(N3CCC4(CC3)C[C@H](C)N(c3ccc(C#N)c(Cl)c3)C4)cc2)CC1 (stereo partly drawn)
[3]
  half-life at 24 h: 4.9 h
In vivo [4]
  AUC(0-t) at 24 h: 2390 ng·h/mL
In vivo [5]
  Cmax at 24 h: 179 ng/mL
VCaP
  IC50: 4.9 nM
[6]
  Vd at 24 h: 4.1 L/kg
[7]
  half-life at 24 h: 5.6 h
[2]
  DC50: 1 nM
In vivo [8]
  bioavailability at 24 h: 22%
[9]
  clearance at 24 h: 13.8 mL/min/kg
[1]; read-out: DC50
  DC50: 0.3 nM
In vivo [10]
  AUC(0-t) at 24 h: 1320 ng·h/mL

## CN1CCN(c2ccc(C(=O)N[C@H]3CC[C@H](N(C)c4ccc(C#N)c(Cl)c4)CC3)cc2)CC1
Androgen receptor
  IC50: 15 nM

## C[C@H]1CC2(CCN(c3ccc(C(=O)N4CCC(CN5Cc6cc7c(cc6C5)C(=O)N(C5CCC(=O)NC5=O)C7=O)CC4)nc3)CC2)CN1c1ccc(C#N)c(Cl)c1 (stereo partly drawn)
VCaP
  IC50: 46 nM
[2]
  DC50: 4.6 nM
[1]; read-out: DC50
  DC50: 15.6 nM

## CN1CCN(c2ccc(C(=O)N3CCC4(CC3)CN(c3ccc(C#N)c(Cl)c3)C4)cc2)CC1
Androgen receptor
  IC50: > 10000 nM

## C[C@H]1CC2(CCN(c3ccc(C(=O)N4CC(CN5Cc6cc7c(cc6C5)C(=O)N(C5CCC(=O)NC5=O)C7=O)C4)cc3)CC2)CN1c1ccc(C#N)c(Cl)c1 (stereo partly drawn)
[3]
  half-life at 24 h: 1.4 h
In vivo [4]
  AUC(0-t) at 24 h: 1380 ng·h/mL
In vivo [5]
  Cmax at 24 h: 78 ng/mL
VCaP
  IC50: 25.7 nM
[6]
  Vd at 24 h: 1.8 L/kg
[7]
  half-life at 24 h: 1.2 h
In vivo [8]
  bioavailability at 24 h: 9%
[9]
  clearance at 24 h: 25 mL/min/kg
In vivo [10]
  AUC(0-t) at 24 h: 310 ng·h/mL

## CN1CCN(C(=O)c2ccc(N3CCC4(CCN(c5ccc(C#N)c(Cl)c5)CC4)C3)cc2)CC1
Androgen receptor
  IC50: 5400 nM

## CN1CCc2cc3c(cc2CC1)C(=O)N(C1CCC(=O)NC1=O)C3=O (stereo not drawn)
Protein cereblon
  Ki: 7300 nM

## CN1CCN(C(=O)c2ccc(N3CCC4(CC3)CCN(c3ccc(C#N)c(Cl)c3)C4)cc2)CC1
Androgen receptor
  IC50: 80 nM

## CN1CCN(c2ccc(C(=O)N3CCC4(C3)CN(c3ccc(C#N)c(Cl)c3)C4)cc2)CC1
Androgen receptor
  IC50: 9900 nM

## C[C@H]1CC2(CCN(c3ccc(C(=O)N4CCC(C)(CN5Cc6cc7c(cc6C5)C(=O)N(C5CCC(=O)NC5=O)C7=O)CC4)cc3)CC2)CN1c1ccc(C#N)c(Cl)c1 (stereo partly drawn)
[3]
  half-life at 24 h: 6.1 h
In vivo [4]
  AUC(0-t) at 24 h: 5090 ng·h/mL
In vivo [5]
  Cmax at 24 h: 539 ng/mL
VCaP
  IC50: 42 nM
[6]
  Vd at 24 h: 3.1 L/kg
[7]
  half-life at 24 h: 8.4 h
[2]
  DC50: 8.9 nM
In vivo [8]
  bioavailability at 24 h: 45%
[9]
  clearance at 24 h: 6.33 mL/min/kg
[1]; read-out: DC50
  DC50: 3.8 nM
In vivo [10]
  AUC(0-t) at 24 h: 5730 ng·h/mL

## N#Cc1ccc(N2CCC3(CCN(c4ccc(C(=O)N5CCC(CN6Cc7cc8c(cc7C6)C(=O)N(C6CCC(=O)NC6=O)C8=O)CC5)cc4)CC3)C2)cc1Cl (stereo not drawn)
[1]; read-out: DC50
  DC50: 5.7 nM

## C[C@H]1CC2(CCN(c3ccc(C(=O)N4CC(N5Cc6cc7c(cc6C5)C(=O)N(C5CCC(=O)NC5=O)C7=O)C4)cc3)CC2)CN1c1ccc(C#N)c(Cl)c1 (stereo partly drawn)
[3]
  half-life at 24 h: 3.2 h
In vivo [4]
  AUC(0-t) at 24 h: 2370 ng·h/mL
In vivo [5]
  Cmax at 24 h: 94 ng/mL
VCaP
  IC50: 85 nM
[6]
  Vd at 24 h: 2.7 L/kg
[7]
  half-life at 24 h: 1.89 h
[2]
  DC50: 5 nM
In vivo [8]
  bioavailability at 24 h: 7.2%
[9]
  clearance at 24 h: 14.5 mL/min/kg
[1]; read-out: DC50
  DC50: 0.7 nM
In vivo [10]
  AUC(0-t) at 24 h: 423 ng·h/mL
